Data: patent publication US6214836A, “Water soluble analogues of 20(S)-camptothecin” (Dr. Reddy's Research Foundation, priority 1996, dated 2001)
Read-outs that look alike come from different tables or passages of the source.

Legend:
[1] = test system: NCI's 60 human tumor cell line; assay: NCI 60 human tumor cell line assay (mean, Table 1); format: cell-based; conditions: read-out: IC 50 (mean value of the minimum drug concentration required to produce 50% cell growth inhibition (GI50))
Experimental: (§1) Inoculates were allowed a preincubation period of 24 h at 37° C. for stabilization. […] Readings are transferred to a microcomputer and fmal reports are generated using especially developed software.
^a IC 50 = the mean value of the minimum drug concentration (μm) of
NCI's 60 human tumor cell line assay.

[2] = test system: humans; conditions: cited from earlier work
[3] = test system: topoisomerase I; conditions: cited from earlier work
[4] = test system: Human Serum Albumin (HSA); conditions: in the presence of HSA at 37° C.; vs 20(S) camptothecin and 9-aminocamptothecin; cited from earlier work
[5] = test system: SF-539; assay: 50% growth inhibition, CNS panel; format: cell-based; conditions: Homo sapiens, read-out: 50% Growth Inhibition (GI 50); SF-539, CNS; 48 h
Experimental: as §1

[6] = test system: SF 295; assay: 50% growth inhibition, CNS panel; format: cell-based; conditions: Homo sapiens, read-out: 50% Growth Inhibition (GI 50); SF 295, CNS; 48 h
Experimental: as §1

[7] = test system: 786-O; assay: 50% growth inhibition, RENAL panel; format: cell-based; conditions: Homo sapiens, 786-0, read-out: 50% Growth Inhibition (GI 50), 48 h
Experimental: as §1

[8] = test system: ACHN; assay: 50% growth inhibition, RENAL panel; format: cell-based; conditions: Homo sapiens, read-out: 50% Growth Inhibition (GI 50), 48 h
Experimental: as §1

[9] = test system: CAKI-1; assay: 50% growth inhibition, RENAL panel; format: cell-based; conditions: Homo sapiens, read-out: 50% Growth Inhibition (GI 50); CAKI-1, renal; 48 h
Experimental: as §1

[10] = test system: HT 29; assay: 50% growth inhibition, COLON panel; format: cell-based; conditions: Homo sapiens, read-out: 50% Growth Inhibition (GI 50); HT 29, colon; 48 h
Experimental: as §1

[11] = test system: SW 620; assay: 50% growth inhibition, COLON panel; format: cell-based; conditions: Homo sapiens, read-out: 50% Growth Inhibition (GI 50); SW 620, colon; 48 h
Experimental: as §1

[12] = test system: HCT 116; assay: 50% growth inhibition, COLON panel; format: cell-based; conditions: Homo sapiens, read-out: 50% Growth Inhibition (GI 50); HCT 116, colon; 48 h
Experimental: as §1

[13] = test system: HL 60; assay: 50% growth inhibition, […] panel; format: cell-based; conditions: Homo sapiens, read-out: 50% Growth Inhibition (GI 50); HL 60, leukemia; 48 h
Experimental: as §1

[14] = test system: SR; assay: 50% growth inhibition, […] panel; format: cell-based; conditions: Homo sapiens, read-out: 50% Growth Inhibition (GI 50), leukemia, 48 h
Experimental: as §1

[15] = test system: CCRF-CEM; assay: 50% growth inhibition, […] panel; format: cell-based; conditions: Homo sapiens, read-out: 50% Growth Inhibition (GI 50), leukemia, 48 h
Experimental: as §1

[16] = test system: M 14; assay: 50% growth inhibition, MELANOMA panel; format: cell-based; conditions: Homo sapiens, M14, read-out: 50% Growth Inhibition (GI 50); M 14, melanoma; 48 h
Experimental: as §1

[17] = test system: LOX IMVI; assay: 50% growth inhibition, MELANOMA panel; format: cell-based; conditions: Homo sapiens, read-out: 50% Growth Inhibition (GI 50), 48 h
Experimental: as §1

[18] = test system: UACC 62; assay: 50% growth inhibition, MELANOMA panel; format: cell-based; conditions: Homo sapiens, read-out: 50% Growth Inhibition (GI 50); UACC 62, melanoma; 48 h
Experimental: as §1

[19] = test system: HOP 62; assay: 50% growth inhibition, NSLC panel; format: cell-based; conditions: Homo sapiens, read-out: 50% Growth Inhibition (GI 50); HOP 62, NSLC; 48 h
Experimental: as §1

[20] = test system: H 460; assay: 50% growth inhibition, NSLC panel; format: cell-based; conditions: Homo sapiens, NCI-H460, read-out: 50% Growth Inhibition (GI 50); H 460, NSLC; 48 h
Experimental: as §1

[21] = test system: H 23; assay: 50% growth inhibition, NSLC panel; format: cell-based; conditions: Homo sapiens, NCI-H23, read-out: 50% Growth Inhibition (GI 50); H 23, NSLC; 48 h
Experimental: as §1

[22] = test system: SF-268; assay: 50% growth inhibition, CNS panel; format: cell-based; conditions: Homo sapiens, SF-268, 48 h, read-out: 50% Growth Inhibition (GI 50)
Experimental: as §1

[23] = test system: SNB-19; assay: 50% growth inhibition, CNS panel; format: cell-based; conditions: Homo sapiens, read-out: 50% Growth Inhibition (GI 50); SNB-19, CNS; 48 h
Experimental: as §1

[24] = test system: MOLT-4; assay: 50% growth inhibition, […] panel; format: cell-based; conditions: Homo sapiens, read-out: 50% Growth Inhibition (GI 50); MOLT-4, leukemia; 48 h
Experimental: as §1

[25] = test system: MCF-7; assay: 50% growth inhibition, BREAST panel; format: cell-based; conditions: Homo sapiens, MCF7, read-out: 50% Growth Inhibition (GI 50); MCF-7, breast; 48 h
Experimental: as §1

[26] = test system: T 47D; assay: 50% growth inhibition, BREAST panel; format: cell-based; conditions: Homo sapiens, T47D, read-out: 50% Growth Inhibition (GI 50), 48 h
Experimental: as §1

[27] = test system: MCF7/ADR; assay: 50% growth inhibition, BREAST panel; format: cell-based; conditions: Homo sapiens, NCI/ADR-RES, read-out: 50% Growth Inhibition (GI 50), 48 h
Experimental: as §1

[28] = test system: H 522; assay: 50% growth inhibition, NSLC panel; format: cell-based; conditions: Homo sapiens, NCI-H522, read-out: 50% Growth Inhibition (GI 50); H 522, NSLC; 48 h
Experimental: as §1

[29] = vs 20(RS)-camptothecin of the formula 7; cited from earlier work

`CC[C@@]1(O)C(=O)OCc2c1cc1n(c2=O)C(CC(=O)OC)c2cc3c(OC)cccc3nc2-1` (stereo partly drawn) [Example 10, 9-methoxy-5-carbomethoxymethylcamptothecin] showed an IC50 ([1]; mean over NCI's 60 human tumor cell lines, 48 h incubation) of 16.2 µM.

In the case of `CC[C@@]1(O)C(=O)OCc2c1cc1n(c2=O)Cc2cc3ccccc3nc2-1` [20(S)-Camptothecin], the “toxicity (in words)” value [2] is given as “high toxicity problems”, the “side effects on humans (in words)” value ([2]; humans) is given as “unacceptable side effects on humans” and the “topoisomerase I inhibition (in words)” value [3] is given as “inhibitor of topoisomerise I”.

For `CCc1c2c(nc3ccc(OC(=O)N4CCC(N5CCCCC5)CC4)cc13)-c1cc3c(c(=O)n1C2)COC(=O)[C@]3(O)CC` [CPT-11], the “percentage (%) of lactone form at equilibrium (in words)” value (from here on “percentage (%) of lactone form”) [4] is given as “higher percentage (%) of lactone form at equilibrium”.

In the case of `CC[C@@]1(O)C(=O)OCc2c1cc1n(c2=O)C(CC(=O)OC)c2cc3c([N+](=O)[O-])cccc3nc2-1` (stereo partly drawn) [Example 5, 9-Nitro-5-carbomethoxymethylcamptothecin], the IC50 ([1]; Homo sapiens, 48 h) is reported as 15.8 µM.

With `CC[C@@]1(O)C(=O)OCc2c1cc1n(c2=O)C(CC(C)=O)c2cc3c([N+](=O)[O-])cccc3nc2-1` (stereo partly drawn) [Example 4, 9-nitro-5-(2'-oxopropyl)camptothecin] the GI50 [5] was 0.26 µM, the GI50 [6] was 0.19 µM and the GI50 [7] was 0.3 µM. It also gave a GI50 [8] of 0.21 µM, a GI50 [9] of 0.21 µM and a GI50 [10] of 1.17 µM. For the same molecule, the GI50 [11] was 0.07 µM, the GI50 [12] was 0.57 µM and the IC50 ([1]; Homo sapiens, 48 h) was 1 µM. The GI50 [13] was 0.23 µM, the GI50 [14] was 0.02 µM and the GI50 [15] was 0.09 µM. The GI50 [16] was 0.3 µM, the GI50 [17] was 0.38 µM and the GI50 [18] was 0.33 µM. For the same molecule, the GI50 [19] was 0.26 µM, the GI50 [20] was 0.1 µM and the GI50 [21] was 0.24 µM.

`CC[C@@]1(O)C(=O)OCc2c1cc1n(c2=O)C(CC(=O)OC)c2cc3cc(O)ccc3nc2-1` (stereo partly drawn) [Example 3, 10-hydroxy-5-carbomethoxymethylcamptothecin] showed an IC50 ([1]; Homo sapiens, 48 h) of 4.89 µM.

`CC[C@@]1(O)C(=O)OCc2c1cc1n(c2=O)C(CC(=O)OC)c2cc3ccccc3nc2-1` (stereo partly drawn) [Example 1, 5-Carbomethoxymethylcamptothecin] showed an IC50 ([1]; Homo sapiens, 48 h) of 16.2 µM.

For `CCc1c2c(nc3ccc(O)cc13)-c1cc3c(c(=O)n1C2)COC(=O)[C@]3(O)CC` [SN-38, 7-ethyl-10-hydroxycamptothecin], the “percentage (%) of lactone form” value [4] is given as “higher percentage (%) of lactone form at equilibrium”.

For `CC[C@@]1(O)C(=O)OCc2c1cc1n(c2=O)Cc2cc3c(CN(C)C)c(O)ccc3nc2-1` [Topotecan, topotecan], the “percentage (%) of lactone form” value [4] is given as “higher percentage (%) of lactone form at equilibrium”.

In the case of `C=C1C(=O)OCc2c1cc1n(c2=O)Cc2c-1nc1ccc(O)cc1c2CC` [formula 8], the “topoisomerase I inhibition (in words)” value [3] is given as “potent camptothecin like inhibition of topoisomerase I activity”.

With `CC[C@@]1(O)C(=O)OCc2c1cc1n(c2=O)C(CC(C)=O)c2cc3ccccc3nc2-1` (stereo partly drawn) [Example 2, 5-(2'-oxopropyl)camptothecin] the GI50 [5] was 3.89 µM, the GI50 [22] was 4.26 µM and the GI50 [23] was 6.45 µM. It also gave a GI50 [7] of 2.95 µM, a GI50 [8] of 2.88 µM and a GI50 [9] of 2.63 µM. For the same molecule, the GI50 [11] was 6.02 µM, the GI50 [12] was 5.62 µM and the IC50 ([1]; Homo sapiens, 48 h) was 8.31 µM. The GI50 [14] was 0.18 µM, the GI50 [24] was 0.77 µM and the GI50 [15] was 0.38 µM. For the same molecule, the GI50 [25] was 3.63 µM, the GI50 [26] was 2.63 µM and the GI50 [27] was 1.86 µM. It also gave a GI50 [19] of 4.46 µM, a GI50 [20] of 1.12 µM and a GI50 [28] of 3.98 µM.

For `CCc1c2c(nc3ccc(OC)cc13)-c1cc3c(c(=O)n1C2)COC(=O)[C@]3(N)CC` [formula 6], the “in vivo antitumor activity (in words)” value [29] is listed as “increased in vivo antitumor activity than 20(RS)-camptothecin”.
